Measured values from patent publication EP2698384A1, “Detection of synthetic cannabinoids” (priority 2012, dated 2014).

Columns and labels:
Assay type in all cases: binding, sheep
Settings in all cases: Cross-reactants at 100 ng/ml; 1000ng/ml; single level of cross reactants
[1] = test system: Antibody to Immunogen III
Procedure, shortened: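 Plates were coated with IgG from antiserum to Immunogen III, and JWH-250 standards (0–40 ng/ml) competed with hapten-HRP conjugate for 1 h at 25°C. Detection used TMB with A450. IC50 is the concentration giving half the 0 ng/ml OD on a 4-parameter fit, and cross-reactivity was taken from calibration curves using a single level of each cross-reactant.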

[2] = test system: Antibody to Immunogen V
Procedure, shortened: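 Plates coated with anti-Immunogen V IgG; RCS-8 standards (0–80 ng/ml in TBST) compete with hapten-HRP conjugate 1 h at 25°C, TMB readout at 450 nm. IC50 from 4-parameter fit as concentration at half the zero-standard OD; cross-reactivity from single-level cross-reactant versus calibration curve.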

[3] = test system: Antibody to Immunogen VI
Procedure, shortened: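 Plates coated with IgG from anti-Immunogen VI antiserum; RCS-4 standards (0–20 ng/ml) compete with hapten-HRP conjugate for 1 h at 25°C. TMB read at 450 nm, 4-parameter fit; IC50 at half the zero-standard OD. Cross-reactivity from single-level cross-reactant solutions against calibration curves.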

Molecule	%B/B0 [1]	%B/B0 [2]	%B/B0 [3]
CCCCCn1cc(C(=O)c2c(CC)ccc3ccccc23)c2ccccc21 [JWH-210 2-ethylnaphthyl isomer]	85.02%	85.10%	89.90%
C=CCCCn1cc(C(=O)c2cccc3ccccc23)c2ccccc21 [JWH-022]	76.82%	61.86%	75.42%
CCCCn1c(O)c(C(=O)c2cccc3ccccc23)c2ccccc21	97.53%	91.80%	89.23%
CCCCCc1cc(O)c2c(c1)OC(C)(C)[C@@H]1CCC(C)=C[C@@H]21 [Delta 9 THC]	91.21%	65.28%	94.84%
CCCCCn1cc(C(=O)c2cccc3ccccc23)c2ccccc21 [JWH-018]	78.39%	78.01%	82.47%
CCCCCn1cc(C(=O)c2c(OC)ccc3ccccc23)c2ccccc21 [JWH-081 2-methoxynaphthyl isomer or (JWH-267)]	85.59%	70.37%	86.87%
O=C(c1cccc2ccccc12)c1cn(CCN2CCOCC2)c2cccc(O)c12 [JWH-200 4-hydroxyindole metabolite]	95.93%	74.79%	90.44%
O=C(c1cccc2ccccc12)c1cn(CCN2CCOCC2)c2cc(O)ccc12 [JWH-200 6-hydroxyindole metabolite]	95.45%	69.91%	88.68%
CN1CCCCC1Cn1cc(C(=O)c2cccc3ccccc23)c2ccccc21 (stereo not drawn) [AM-1220]	99.70%	63.74%	81.44%
(+)-CP 55,940	92.49%	74.18%	94.76%
CCCCCn1cc(C(=O)c2cccc3c(OC)cccc23)c2ccccc21 [JWH-081 5-methoxynaphthyl isomer]	76.35%	90.40%	77.74%
CCCCn1cc(C(=O)c2ccc(OC)cc2)c2ccccc21	62.80%	76.87%	4.40%
CCCCCn1cc(C(=O)c2cccc3ccccc23)c2ccc(OC)cc21 [JWH-018 6-methoxyindole analogue]	85.67%	73.60%	86.92%
CCCCCCCC(C)(C)c1ccc(C2CCCC(O)C2)c(O)c1 (stereo not drawn)	95.39%	86.41%	100.84%
(-)-CP 55,940	90.16%	91.41%	94.76%
